Experimental data: patent publication US20110105509A1 (Wyeth, LLC, priority 2009, published 2011)

Target: T1, CRTH2 (Homo sapiens, UniProt Q9Y5Y4)
T1 construct: expressed in transfected cells; host or cells: CHO cells
T1 sequence (Q9Y5Y4 1-395): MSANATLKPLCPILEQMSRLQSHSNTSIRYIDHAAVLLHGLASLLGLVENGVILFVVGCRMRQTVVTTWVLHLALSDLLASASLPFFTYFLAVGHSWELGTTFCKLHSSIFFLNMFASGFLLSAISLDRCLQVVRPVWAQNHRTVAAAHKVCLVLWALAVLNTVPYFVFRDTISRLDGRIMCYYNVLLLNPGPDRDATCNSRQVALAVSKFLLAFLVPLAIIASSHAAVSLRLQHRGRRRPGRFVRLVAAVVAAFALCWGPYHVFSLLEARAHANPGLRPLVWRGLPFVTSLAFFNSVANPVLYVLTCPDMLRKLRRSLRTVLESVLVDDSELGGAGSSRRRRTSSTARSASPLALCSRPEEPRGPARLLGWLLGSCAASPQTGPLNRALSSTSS
Experiment: FRET based competitive immunoassay (cAMP) in CRTH2 expressing CHO cells
Assay type: cell-based
Conditions: CRTH2 expressing CHO cells incubated with forskolin and PGD2; Eu3+ cryptate-labeled anti-cAMP and d2-labeled cAMP
Description: FRET Assay: To evaluate potency compounds were tested in a FRET based competitive immunoassay in which CRTH2 expressing CHO cells were incubated in the presence of forskolin and PGD2 along with Eu3+ cryptate-labeled anti-cAMP and d2-labeled cAMP.

| Compound | IC50 |
| --- | --- |
| Cc1c(Cc2ccc(=O)n(Cc3cccc(F)c3F)n2)c2ccccc2n1CC(=O)O [Example 79, 2-(3-((1-(2,3-difluorobenzyl)-6-oxo-1,6-dihydropyridazin-3-yl)methyl)-2-methyl-1H-indol-1-yl)acetic acid] | 0.022 µM |
| Cc1c(-c2nn(CCOc3ccccc3)c(=O)c3ccccc23)c2cc(Cl)ccc2n1CC(=O)NS(C)(=O)=O [Example 322, 2-(5-Chloro-2-methyl-3-(4-oxo-3-(2-phenoxyethyl)-3,4-dihydrophthalazin-1-yl)-1H-indol-1-yl)-N-(methylsulfonyl)acetamide] | > 1 µM |
| Cc1c(-c2ccc(=O)n(CCCC(F)(F)F)c2)c2cc(F)ccc2n1CC(=O)NS(C)(=O)=O [Example 318, 2-(5-fluoro-2-methyl-3-(6-oxo-1-(4,4,4-trifluorobutyl)-1,6-dihydropyridin-3-yl)-1H-indol-1-yl)-N-(methylsulfonyl)acetamide] | > 1 µM |
| Cc1c(-c2ccc(=O)n(Cc3cccc(F)c3C(F)(F)F)n2)c2cc(F)ccc2n1CC(=O)O [Example 156, 2-(5-fluoro-3-(1-(3-fluoro-2-(trifluoromethyl)benzyl)-6-oxo-1,6-dihydro-pyridazin-3-yl)-2-methyl-1H-indol-1-yl)acetic acid] | 0.025 µM |
| Cc1c(-c2nn(Cc3ccccc3)c(=O)c3ccccc23)c2ccccc2n1CC(=O)N(C)C [Example 48, 2-(3-(3-Benzyl-4-oxo-3,4-dihydrophthalazin-1-yl)-2-methyl-1H-indol-1-yl)-N,N-dimethylacetamide] | > 2 µM |
| Cc1c(-c2ccc(=O)n(Cc3ccc(F)cc3C(F)(F)F)n2)c2cc(Cl)ccc2n1CC(=O)O [Example 142, 2-(5-chloro-3-(1-(4-fluoro-2-(trifluoromethyl)benzyl)-6-oxo-1,6-dihydro-pyridazin-3-yl)-2-methyl-1H-indol-1-yl)acetic acid] | 0.019 µM |
| Cc1c(Cc2ccc(=O)n(CC(O)(C(F)(F)F)C(F)(F)F)n2)c2cc(F)ccc2n1CC(=O)O [Example 201, [5-fluoro-2-methyl-3-({6-oxo-1-[3,3,3-trifluoro-2-hydroxy-2-(trifluoromethyl)-propyl]-1,6-dihydro-pyridazin-3-yl}methyl)-1H-indol-1-yl]acetic acid] | 0.022 µM |
| Cc1c(-c2nn(CCc3ccc(F)cc3)c(=O)c3ccccc23)c2ccccc2n1CC(=O)O [Example 224, 2-(3-(3-(4-fluorophenethyl)-4-oxo-3,4-dihydrophthalazin-1-yl)-2-methyl-1H-indol-1-yl)acetic acid] | 0.093 µM |
| Cc1c(-c2ccc(=O)n(Cc3ccccc3)n2)c2cc(F)cc(Cl)c2n1CC(=O)O [Example 231, 2-(3-(1-benzyl-6-oxo-1,6-dihydropyridazin-3-yl)-7-chloro-5-fluoro-2-methyl-1H-indol-1-yl)acetic acid] | 0.401 µM |
| Cc1c(-c2nn(C3CC3)c(=O)c3ccccc23)c2cc(F)ccc2n1CC(=O)O [Example 123, 2-(3-(3-cyclopropyl-4-oxo-3,4-dihydrophthalazin-1-yl)-5-fluoro-2-methyl-1H-indol-1-yl)acetic acid] | 0.022 µM |
| Cc1c(-c2cn(CC(O)(C(F)(F)F)C(F)(F)F)c(=O)c3ccccc23)c2cc(F)ccc2n1CC(=O)O [Example 255, 2-(5-fluoro-2-methyl-3-(1-oxo-2-(3,3,3-trifluoro-2-hydroxy-2-(trifluoro-methyl)propyl)-1,2-dihydroisoquinolin-4-yl)-1H-indol-1-yl)acetic acid] | 0.055 µM |
| Cc1c(-c2ccc(=O)n(CCOc3ccc(Cl)cc3)n2)c2cc(Cl)ccc2n1CC(=O)O [Example 140, 2-(5-chloro-3-(1-(2-(4-chlorophenoxy)ethyl)-6-oxo-1,6-dihydropyridazin-3-yl)-2-methyl-1H-indol-1-yl)acetic acid] | 0.016 µM |
| Cc1c(-c2nn(C)c(=O)c3ccccc23)c2cc(Cl)ccc2n1CC(=O)O [Example 105, 2-(5-chloro-2-methyl-3-(3-methyl-4-oxo-3,4-dihydrophthalazin-1-yl)-1H-indol-1-yl)-acetic acid] | 0.121 µM |
| Cc1c(-c2nn(Cc3ccc(OC(F)(F)F)cc3)c(=O)c3ccccc23)c2cc(F)ccc2n1CC(=O)O [Example 117, 2-(5-fluoro-2-methyl-3-(4-oxo-3-(4-(trifluoromethoxy)benzyl)-3,4-dihydro-phthalazin-1-yl)-1H-indol-1-yl)acetic acid] | 0.022 µM |
| Cc1c(-c2nn(Cc3ccccc3)c(=O)c3ccccc23)c2cc(Cl)cc(Cl)c2n1CC(=O)O [Example 245, 2-(3-(3-benzyl-4-oxo-3,4-dihydrophthalazin-1-yl)-5,7-dichloro-2-methyl-1H-indol-1-yl)acetic acid] | 0.587 µM |
| Cc1c(-c2nn(Cc3ccccc3)c(=O)c3ccccc23)c2cc(F)ccc2n1CC(=O)O [Example 328, [3-(3-benzyl-4-oxo-3,4-dihydrophthalazin-1-yl)-5-fluoro-2-methyl-1H-indol-1-yl]-acetic acid] | 0.012 µM |
| Cc1c(-c2ccc(=O)n(Cc3ccccc3)n2)c2cc(S(C)(=O)=O)cc(F)c2n1CC(=O)O [Example 17, 2-(3-(1-Benzyl-6-oxo-1,6-dihydropyridazin-3-yl)-7-fluoro-2-methyl-5-(methylsulfonyl)-1H-indol-1-yl)acetic acid] | 2.78 µM |
| Cc1c(-c2ccc(=O)n(Cc3cc(F)c(F)cc3F)c2)c2cc(F)ccc2n1CC(=O)O [Example 271, 2-(5-Fluoro-2-methyl-3-(6-oxo-1-(2,4,5-trifluorobenzyl)-1,6-dihydropyridin-3-yl)-1H-indol-1-yl)acetic acid] | 0.012 µM |
| Cc1c(-c2ccc(=O)n(Cc3ccccc3)n2)c2ccccc2n1CC(=O)O [Example 180, 2-(3-(1-benzyl-6-oxo-1,6-dihydropyridazin-3-yl)-2-methyl-1H-indol-1-yl)-acetic acid] | 0.096 µM |
| COC(=O)Cn1c(C)c(-c2ccc(=O)n(Cc3ccc(F)cc3F)n2)c2ccccc21 [Example 186, methyl 2-(3-(1-(2,4-difluorobenzyl)-6-oxo-1,6-dihydropyridazin-3-yl)-2-methyl-1H-indol-1-yl)acetate] | 0.15 µM |
| Cc1c(-c2ccc(=O)n(CC3CC3)n2)c2cc(F)ccc2n1CC(=O)O [Example 161, 2-(3-(1-(cyclopropylmethyl)-6-oxo-1,6-dihydropyridazin-3-yl)-5-fluoro-2-methyl-1H-indol-1-yl)acetic acid] | 0.023 µM |
| Cc1c(-c2nn(CC(F)(F)F)c(=O)c3ccccc23)c2ccccc2n1CC(=O)O [Example 177, 2-(2-Methyl-3-(4-oxo-3-(2,2,2-trifluoroethyl)-3,4-dihydrophthalazin-1-yl)-1H-indol-1-yl)-acetic acid] | 0.215 µM |
| Cc1c(-c2nn(Cc3ccc(C(F)(F)F)cc3)c(=O)c3ccccc23)c2ccccc2n1CC(=O)O [Example 171, 2-(2-methyl-3-(4-oxo-3-(4-(trifluoromethyl)benzyl)-3,4-dihydrophthalazin-1-yl)-1H-indol-1-yl)acetic acid] | 0.296 µM |
| Cc1c(-c2nn(Cc3ccc(S(C)(=O)=O)cc3)c(=O)c3ccccc23)c2ccccc2n1CC(=O)O [Example 168, 2-(2-methyl-3-(3-(4-(methylsulfonyl)benzyl)-4-oxo-3,4-dihydrophthalazin-1-yl)-1H-indol-1-yl)acetic acid] | 0.062 µM |
| Cc1c(Cc2ccc(=O)n(Cc3cccc(F)c3)n2)c2ccccc2n1CC(=O)O [Example 75, 2-(3-((1-(3-fluorobenzyl)-6-oxo-1,6-dihydropyridazin-3-yl)methyl)-2-methyl-1H-indol-1-yl)acetic acid] | 0.101 µM |
